Experimental data taken from US9988371B2, “Benzimidazole analogues and related methods” (The Arizona Board of Regents, on Behalf of the University …, priority 2014, dated 2018).
Like-named read-outs stand apart in the source and are kept apart here.

Columns and labels:
[1] = system: LC-2/ad cells (NSCLC expressing CCDC6-RET); assay: Growth curve proliferation assay, LC-2/ad cells; format: cell-based; details: Homo sapiens, last day of growth curves
Protocol: FIG. 5: Effects exerted by indicated concentrations of Pz-1 or vehicle (NT: not treated) on proliferation of TT (human MTC cell line expressing RET/C634W), Lc-2/ad (human NSCLC expressing CCDC6-RET) and Nthy-ori-3-1 (thyroid non-transformed) cell lines. Data are the mean±SD (Standard Deviation) of one experiment performed in triplicate. Bottom, right) Growth inhibition IC50 of Pz-1 for the different cell lines: 95% CI (confidence intervals) are indicated in brackets. Cells were seeded in triplicate in 60-mm dishes and kept in 5% (Nthy-ori-3-1) or 10% (TT and Lc-2/ad) fetal calf serum. The day after plating, different concentrations of Pz-1 or vehicle were added to the medium and changed every 2-3 days. Cells were counted every 2-3 days and cell numbers were reported±SD (Standard Deviation). IC50 doses (with Confidence Intervals) were calculated through a curve fitting analysis from the last day of growth curves using the PRIZM software program (Graphpad Software Inc).
Nthy-ory-3-1 and TTcells were seeded in 60-mm dishes. […] Cells were counted every 2-3 days. […] Parental and RET/PTC-expressing Ba/F3 were kept in 10% fetal calf serum in 6-multi wells and counted every day for 4 consecutive days, changing media every 2 days. […] IC50 doses were calculated through a curve fitting analysis from the last day of growth curves using the PRISM software program (Graphpad Software Inc). […]

VEGFR2 [2] = molecular target: T1, VEGFR2 (Mus musculus, UniProt P35918); assay: In vivo target inhibition, pVEGFR2 in RET/C634Y-induced tumors; set-up: species or system nude mice; details: 48 hr, 1.0 or 3.0 mg/kg daily
T1 construct: from tissue; host or cells: subcutaneous tumours (NIH3T3 RET/C634Y or NIH3T3 HRAS/G12V) in BALB/c nu/nu mice
Protocol: (§1) FIG. 9: Photographs of blots showing effects of Pz-1 on cellular phosphorylation events in tumors induced in nude mice (from FIG. 8) by injection of NIH3T3 fibroblasts transformed by RET/C634Y or HRAS/G12V. […] Some of the vehicle-treated tumors, at the end of the tumor growth experiment described in FIG. 8, were treated for 48 hr with different doses of Pz-1 (TR) or left untreated (NT). At the end of the treatment, 50 μg of tumor protein lysates were subjected to immunoblotting with anti-phospho-Y1062 (αp1062) and anti-phospho-905 (αpY905) RET antibodies, anti-phospho-MAPK (αpMAPK, T302/Y304), anti-phospho-SHC (αpSHC, Y317), anti-phospho-p70S6K (αpp70S6K, T389), anti-phospho-S6RP (αpS6RP, S235/S236), and anti-phospho-VEGFR2 (αpVEGFR2 pY1175) antibodies. The blots were normalized using anti-RET (αRET), anti-SHC (αSHC), anti-MAPK (αMAPK), anti-p70S6K (αp70S6K), anti-S6RP (αS6RP) or anti-VEGFR2 (αVEGFR2) antibodies.
(§2) Some of the vehicle-treated tumors, at the end of the tumor growth experiment reported in FIG. 8, were treated for 48 hr with different doses of Pz-1 (1.0 or 3.0 mg/kg daily) or left untreated. […]

VEGFR2 [3] = molecular target: T1, VEGFR2; assay: In vivo target inhibition, pVEGFR2 in HRAS/G12V-induced tumors; set-up: species or system nude mice; details: 48 hr, 1.0 or 3.0 mg/kg daily
Protocol: as §1, §2

PK study in mice = format: in vivo; details: for half-life: mouse, in vivo
Protocol: (§3) For PK studies of Pz-1 in animals, a solution formulation for oral administration was created in 500 μL of polysorbate 80, 500 μL of EtOH, and 1.0 mL of pH 2 buffer. For the toxicity studies, a suspension formulation was developed in tween 20 (20%) and xanthan gum (0.125%).
T112 (3-4 hrs) in rats was in line with T1/2 in mice (4.2 hrs).

CYP3A4 = CYP3A4 (Homo sapiens, UniProt P08684); assay: CYP inhibition; format: in vitro ADME; details: read-out: CYP 3A4 IC50
[4] = week-long toxicology study in mice; format: in vivo
Protocol: as §3
Similarly, the toxicity markers including phosphorus, creatinine, total bilirubin, GGT, ALP, glucose, total protein, albumin, globulin, calcium, cholesterol, and BUN were not impacted at any dose. […] At the highest dose, the concentration of ALT was slightly above the normal ALT level of 80 U/L, but below the toxicity threshold of 200 U/L. ALT levels can easily be monitored and can serve as a reversible toxicity marker in the clinical setting.

T1 sequence (P35918 20-1345): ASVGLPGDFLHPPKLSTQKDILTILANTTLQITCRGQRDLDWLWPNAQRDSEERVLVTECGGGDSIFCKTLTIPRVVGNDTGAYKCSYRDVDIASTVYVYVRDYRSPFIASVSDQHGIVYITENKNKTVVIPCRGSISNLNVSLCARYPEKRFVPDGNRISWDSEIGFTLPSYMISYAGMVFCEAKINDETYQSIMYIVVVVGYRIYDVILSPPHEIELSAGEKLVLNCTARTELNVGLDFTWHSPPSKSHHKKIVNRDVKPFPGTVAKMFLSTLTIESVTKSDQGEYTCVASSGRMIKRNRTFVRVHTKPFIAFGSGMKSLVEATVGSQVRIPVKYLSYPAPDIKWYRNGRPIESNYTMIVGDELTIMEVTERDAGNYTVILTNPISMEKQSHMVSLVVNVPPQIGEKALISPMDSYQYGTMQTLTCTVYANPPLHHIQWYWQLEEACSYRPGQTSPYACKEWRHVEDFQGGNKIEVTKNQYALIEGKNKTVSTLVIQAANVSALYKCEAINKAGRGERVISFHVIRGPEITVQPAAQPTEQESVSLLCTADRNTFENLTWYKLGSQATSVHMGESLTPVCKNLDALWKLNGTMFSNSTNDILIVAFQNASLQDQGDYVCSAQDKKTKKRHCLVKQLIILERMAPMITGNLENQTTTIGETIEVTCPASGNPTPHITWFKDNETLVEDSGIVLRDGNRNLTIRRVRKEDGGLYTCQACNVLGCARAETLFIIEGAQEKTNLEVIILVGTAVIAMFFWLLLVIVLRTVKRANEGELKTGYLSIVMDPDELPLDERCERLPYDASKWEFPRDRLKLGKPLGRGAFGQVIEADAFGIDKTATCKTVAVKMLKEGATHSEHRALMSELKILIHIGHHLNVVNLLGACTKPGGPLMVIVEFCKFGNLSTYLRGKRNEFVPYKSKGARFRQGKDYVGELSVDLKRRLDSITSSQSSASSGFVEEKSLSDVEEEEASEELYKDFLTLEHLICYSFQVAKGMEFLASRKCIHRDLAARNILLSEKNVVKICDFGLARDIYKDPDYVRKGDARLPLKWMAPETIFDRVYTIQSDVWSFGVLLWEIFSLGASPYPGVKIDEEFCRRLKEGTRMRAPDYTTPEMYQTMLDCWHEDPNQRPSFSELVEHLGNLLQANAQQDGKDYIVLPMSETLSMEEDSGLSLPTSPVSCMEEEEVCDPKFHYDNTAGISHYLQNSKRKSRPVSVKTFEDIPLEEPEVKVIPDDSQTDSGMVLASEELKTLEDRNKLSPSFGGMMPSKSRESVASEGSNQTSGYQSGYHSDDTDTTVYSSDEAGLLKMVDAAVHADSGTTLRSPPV
CYP3A4, sequence (P08684 whole entry): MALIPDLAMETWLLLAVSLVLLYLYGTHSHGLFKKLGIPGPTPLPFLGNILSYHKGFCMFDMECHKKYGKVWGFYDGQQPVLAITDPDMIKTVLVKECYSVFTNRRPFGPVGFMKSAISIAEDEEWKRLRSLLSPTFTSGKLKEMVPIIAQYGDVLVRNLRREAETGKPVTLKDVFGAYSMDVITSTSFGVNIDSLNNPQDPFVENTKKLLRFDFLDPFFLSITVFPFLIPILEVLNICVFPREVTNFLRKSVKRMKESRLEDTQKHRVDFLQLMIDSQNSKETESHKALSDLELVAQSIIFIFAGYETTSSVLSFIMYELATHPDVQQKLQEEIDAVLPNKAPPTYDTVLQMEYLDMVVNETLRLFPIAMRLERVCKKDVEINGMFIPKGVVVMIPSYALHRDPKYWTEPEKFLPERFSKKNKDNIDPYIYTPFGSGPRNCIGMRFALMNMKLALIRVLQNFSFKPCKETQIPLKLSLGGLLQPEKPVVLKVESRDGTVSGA

## Cn1cc(-c2ccc3c(c2)ncn3-c2ccc(CC(=O)Nc3cc(C(C)(C)C)on3)cc2)cn1 [Pz-1, N-(5-(tert-butyl)isoxazol-3-yl)-2-(4-(5-(1-methyl-1H-pyrazol-4-yl)-1H-benzo[d]imidazol-1-yl)phenyl)acetamide]
[1]
  IC50: 0.000907 µM
VEGFR2 [2]
  pVEGFR2 in tumors: inhibited
VEGFR2 [3]
  pVEGFR2 in tumors: inhibited
PK study in mice; 2 mg/kg, solution formulation
  AUC: 6.5 µg/h/mL
PK study in mice; oral, read-out: T1/2 (converted)
  half-life: 4.2 h
PK study in mice; po, 2 mg/kg, read-out: elimination half-life (converted)
  half-life: 3.8 h
CYP3A4
  IC50: 7.4 µM
[4]; 10 mg/kg
  ALT in blood: 22 U/L
[4]; 30 mg/kg
  ALT in blood: 51 U/L
[4]; 100 mg/kg
  ALT in blood: 96 U/L
[4]; any dose
  toxicity markers (phosphorus, creatinine, total bilirubin, GGT, ALP, glucose, total protein, albumin, globulin, calcium, cholesterol, BUN): not impacted
[4]; even at 100 mg/kg
  organ pathological analysis in heart, kidney, and liver: did not show adverse effects
[4]; one week, daily dose escalation from 10 mg/kg to 100 mg/kg, suspension formulation
  toxicity: no significant toxicity
